# Measurements as given in patent US7041701B2, “Triterpenoid derivatives” (Univerzita Palackeho V Olomouci, priority 2000, dated 2006).
# Assays:
# [1] = test system: A549 human lung adenocarcinoma; test: MTT cytotoxicity assay, A549; assay type: cell-based; conditions: 72 hours, read-out: TCS50
# Source text: (§1) One of the parameters used as the basis for colorimetric assays is the metabolic activity of viable cells. For example, a microtiter assay which uses the tetrazolium salt MTT is now widely used to quantitate cell proliferation and cytotoxicity [Hajdúch M, Mihál V, Minarík J, Fáber E, Safárová M, Weigl E, Antálek P.: Cytotechnology, 1996, 19, 243–245]. For instance, this assay is used in drug screening programs and in chemosensitivity testing. Because tetrazolium salts are cleaved only by metabolically active cells, these assays exclusively detect viable cells. In the case of the MTT assay, yellow soluble tetrazolium salt is reduced to a coloured water-insoluble formazan salt. After it is solubilized, the formazan formed can easily and rapidly be quantified in a conventional ELISA plate reader at 570 nm (maximum absorbancy). The quantity of reduced formazan corresponds to the number of vital cells in the culture. […]
# (§2) The cell suspensions that were prepared and diluted according to the particular cell type and the expected target cell density (2,500–30,000 cells per well based on cell growth characteristics) were added by pipette (80 μl) into 96/well microtiter plates. […] Usually, test compounds were evaluated at six 4-fold dilutions. […] The tumour cell survival (TCS) was calculated using the following equitation: TCS=(ODdrug exposed well/mean ODcontrol wells)×100%. […]
# [2] = test system: MCF-7 human breast cancer, estrogen dependent, p53+/+, Rb+/+; test: MTT cytotoxicity assay, MCF-7; assay type: cell-based; conditions: 72 hours, read-out: TCS50
# Source text: as §1, §2
# [3] = test system: DU145 human prostate cancer, androgen independent, Rb−/−; test: MTT cytotoxicity assay, DU145; assay type: cell-based; conditions: 72 hours, read-out: TCS50
# Source text: as §1, §2
# [4] = test system: K562-FLUD human promyelocytic leukemia, fludarabin resistant; test: MTT cytotoxicity assay, K562-FLUD; assay type: cell-based; conditions: 72 hours, read-out: TCS50
# Source text: as §1, §2
# [5] = test system: human SK-N-AS neuroblastoma; test: In vivo activity in xenotransplanted human neuroblastoma; parameters: species or system CD-1/Ctrl-1 nu/nu nude female mice; conditions: I.3 1 or 2 mg/mouse s.c. or i.p., 3×D1,2,5,6,9,10; SK-N-AS in nude mice (FIG. 2)
# Description: Human neuroblastoma SK-N-AS cell line was obtained from ATTC. The line was cultured in Dulbeco's modified essential medium with 4.5 g dextrose/l, 10% of foetal calf serum, 2 mM glutamine, 100 U/ml penicillin and […] streptomycin. For transplantation purposes, only the cells in log phase were used.
# CD-1/Ctrl-1 nu/nu nude female mice, 8 weeks old, 18–22 g weight were used in this study (IffaCredo, France). Animals were inoculated with 5.10^6 tumour cells subcutaneously into right inquinal region. Following transplantation, tumor growth was measured in both the control/vehicle and the treated groups using calipers. Tumor volume (TV) was calculated as follows: TV=(a^2×b)/2, where a is width and b is length The statistical significance was evaluated using a […].
# Cisplatin (Platidiam 10 inj, sicc., Lachema, Czech Republic) was used as a control drug in this experiment. It was diluted in apyrogenic water and applied to animals in a final volume of 0.18 ml subcutaneously at day 1.
# I.3 was synthesised as described above. It was suspended at 10 mg/ml in 5% dextrose and pH was adjusted to 8.0 with sodium hydroxide. vehicle: 5% dextrose with pH adjusted to 8.0 with sodium hydroxide. […]
compound,measurement,setting,value
"CC(=O)OC[C@@]1(C(=O)O)CC[C@]2(C)[C@H](CC[C@@H]3[C@@]4(C)CC[C@H](OC(C)=O)C(C)(C)[C@@H]4CC[C@]32C)C1=O [I.3, 3β,28-diacetoxy-18-oxo-19,20,21,29,30-pentanorlupan-22-oic acid]",IC50,[1],1000 nM
same,IC50,[2],2300 nM
same,IC50,[3],800 nM
same,IC50,[4],400 nM
same,tumor growth (tumor volume),[5],no tumor growth
